Laboratory results reported in ChEMBL document CHEMBL1795340, “A discovery of novel Mycobacterium tuberculosis pantothenate synthetase inhibitors based on the molecular mechanism of actinomycin D inhibition” (Bioorg Med Chem Lett, 2011).
In brackets after ≈: the same amount, converted by molar mass.

Key:
[1] = test system: Mycobacterium tuberculosis; assay: Antimycobacterial activity against drug-resistant Mycobacterium tuberculosis clinical isolate; type: functional
[2] = test system: Mycobacterium tuberculosis; assay: Antimycobacterial activity against rifampin and isoniazid-resistant Mycobacterium tuberculosis; type: functional

`COC(=O)c1cc2c(OCc3ccccc3)cc(N)cc2[nH]1` gave an MIC [1] of 54 µM (≈ 16 µg/mL) and an MIC [2] of 54 µM (≈ 16 µg/mL).
